Source: patent US11571480B2, “Multi-ligand drug conjugates and uses thereof” (priority 2015, dated 2023)
Square brackets hold non-standard residues; d marks the D form. Peptide text beside a SMILES is read from it. * marks the point of attachment. Dolaproine = CO[C@@H]([C@@H]1CCCN1)[C@@H](C)C(=O)O; Dil = CC[C@H](C)[C@H](NC)[C@@H](CC(=O)O)OC; X1 = C[C@@H](N*)[C@@H](O)c1ccccc1; NMeV = CN[C@H](C(=O)O)C(C)C

Key:
[1] = system: chronic myeloid leukemia cell line K562; test: Cytotoxicity test of conjugate LDC10B; type: cell-based; details: K562, Incubation Time 30 min
Description: (§1) Culture medium: RPMI 1640 Medium, no folic acid
(§2) 1) human nasopharyngeal cancer cell line KB, melanoma cell line A375, human lung cancer cell H1299, chronic myeloid leukemia cell line K562, human lung cancer cell H460, ovarian cancer cell SKOV3, breast cancer cell line HCC1954, human gastric cancer cell N87, and human breast cancer cell SK-BR-3 were incubated at 37° C., 5% CO2 in RPMI 1640 medium containing 10% fetal bovine serum, the cells were passaged every 2-3 days.
(§3) 2) human nasopharyngeal cancer cell line KB, melanoma cell line A375, human lung cancer cell H1299, chronic myeloid leukemia cell line K562, human lung cancer cell H460, ovarian cancer cell SKOV3, breast cancer cell line HCC1954, human gastric cancer cell N87, and human breast cancer cell SK-BR-3 were plated at 1×10^3 cells per well (96-well plate) and incubated for 8-12 h at 37° C., 5% CO2.
(§4) 3) Stock solutions of LDC conjugates or controls were prepared in PBS solution. 100 μL/well of serially diluted LDC conjugates or controls was added to the test cells in the plates and incubated for 15-30 min at 37° C., 5% CO2. The culture medium in the wells was then removed by aspiration and the test cells were incubated in fresh culture medium without conjugates (150 μL/well) for 2-3 days at 37° C., 5% CO2.
(§5) 4) CellTiter 96® Aqueous One Solution Cell Proliferation Assay (Promega) was added to each well to measure the amount of […] cells, and each plate was incubated in an incubator for 1 h at 37° C., 5% CO2.
(§6) 5) Each plate was read at 490 nm on a microplate reader, and the cell survivals were compared for test cells with or without the treatment of LDC conjugates. The LDC drug concentrations that are required for 50% cell death (IC50 values) were determined.

[2] = system: human breast cancer cell SK-BR-3; test: Cytotoxicity test of conjugate LDC10B; type: cell-based; details: SK-BR-3, Incubation Time 30 min
Description: as §1, §2, §3, §4, §5, §6

[3] = system: human gastric cancer cell N87; test: Cytotoxicity test of conjugate LDC10B; type: cell-based; details: N87, Incubation Time 30 min
Description: as §1, §2, §3, §4, §5, §6

[4] = system: human lung cancer cell H1299; test: Cytotoxicity test of conjugate LDC10B; type: cell-based; details: H1299, Incubation Time 30 min
Description: as §1, §2, §3, §4, §5, §6

[5] = system: human lung cancer cell H460; test: Cytotoxicity test of conjugate LDC10B; type: cell-based; details: H460, Incubation Time 30 min
Description: as §1, §2, §3, §4, §5, §6

[6] = system: human nasopharyngeal cancer cell line KB; test: Cytotoxicity test of conjugate LDC10B; type: cell-based; details: Incubation Time 15 min
Description: as §1, §2, §3, §4, §5, §6

[7] = system: melanoma cell line A375; test: Cytotoxicity test of conjugate LDC10B; type: cell-based; details: A375, Incubation Time 15 min
Description: as §1, §2, §3, §4, §5, §6

[8] = system: breast cancer cell line HCC1954; test: Cytotoxicity test of conjugate LDC10B; type: cell-based, human; details: HCC1954, Incubation Time 30 min
Description: as §1, §2, §3, §4, §5, §6

[9] = system: ovarian cancer cell SKOV3; test: Cytotoxicity test of conjugate LDC10B; type: cell-based, human; details: SKOV3, Incubation Time 30 min
Description: as §1, §2, §3, §4, §5, §6

[10] = system: human colon carcinoma HCT-116; test: Cytotoxicity test of conjugate LDC13B; type: cell-based; details: HCT-116, incubated 15-30 min, then 2-3 days
Description: as §1
(§7) 1) human nasopharyngeal cancer cell line KB, human colon carcinoma HCT-116, human prostatic cancer cell PC-3, human gastric cancer cell line GTL-16, human endometrial cancer cell HEC-1A, and human gastric cancer cell N87 were incubated at 37° C., 5% CO2 in RPMI 1640 medium containing 10% fetal bovine serum, the cells were passaged every 2-3 days.
(§8) 2) human nasopharyngeal cancer cell line KB, human colon carcinoma HCT-116, human prostatic cancer cell PC-3, human gastric cancer cell line GTL-16, human endometrial cancer cell HEC-1A, and human gastric cancer cell N87 were plated at 1×10^3 cells per well (96-well plate) and incubated for 8-12 h at 37° C., 5% CO2.
as §4, with “control” for “controls”, “the” for “the test”, “plate” for “plates”
(§9) 4) CellTiter 96® Aqueous One Solution Cell Proliferation Assay (Promega) was added to each well to measure the amount of […] cells, and the plate was incubated in an incubator for 1 h at 37° C., 5% CO2.
(§10) 5) the plate was read at 490 nm on a microplate reader, and the cell survivals were compared for cells with or without the treatment of LDC conjugates. The LDC drug concentrations that are required for 50% cell death (IC50 values) were determined.

[11] = system: human endometrial cancer cell HEC-1A; test: Cytotoxicity test of conjugate LDC13B; type: cell-based; details: incubated 15-30 min, then 2-3 days
Description: as §1, §7, §8
as §4, with “control” for “controls”, “the” for “the test”, “plate” for “plates”
as §9, §10

[12] = system: human gastric cancer cell N87; test: Cytotoxicity test of conjugate LDC13B; type: cell-based; details: N87, incubated 15-30 min, then 2-3 days
Description: as §1, §7, §8
as §4, with “control” for “controls”, “the” for “the test”, “plate” for “plates”
as §9, §10

[13] = system: human gastric cancer cell line GTL-16; test: Cytotoxicity test of conjugate LDC13B; type: cell-based; details: GTL-16, incubated 15-30 min, then 2-3 days
Description: as §1, §7, §8
as §4, with “control” for “controls”, “the” for “the test”, “plate” for “plates”
as §9, §10

[14] = system: human nasopharyngeal cancer cell line KB; test: Cytotoxicity test of conjugate LDC13B; type: cell-based; details: KB, incubated 15-30 min, then 2-3 days
Description: as §1, §7, §8
as §4, with “control” for “controls”, “the” for “the test”, “plate” for “plates”
as §9, §10

[15] = system: human prostatic cancer cell PC-3; test: Cytotoxicity test of conjugate LDC13B; type: cell-based; details: PC-3, incubated 15-30 min, then 2-3 days
Description: as §1, §7, §8
as §4, with “control” for “controls”, “the” for “the test”, “plate” for “plates”
as §9, §10

[16] = system: human lung cancer cell H460; test: Cytotoxicity test of conjugate LDC1013; type: cell-based; details: H460, incubated 15-30 min, then 2-3 days
Description: as §1
(§11) 1) human nasopharyngeal cancer cell line KB, melanoma cell line A375, and human lung cancer cell H460 were incubated at 37° C., 5% CO2 in RPMI 1640 medium containing 10% fetal bovine serum, the cells were passaged every 2-3 days.
(§12) 2) human nasopharyngeal cancer cell line KB, melanoma cell line A375, and human lung cancer cell H460 were plated at 1×10^3 cells per well (96-well plate) and incubated for 8-12 h at 37° C., 5% CO2.
as §4, with “control” for “controls”, “the” for “the test”, “plate” for “plates”
as §9, §10

[17] = system: human nasopharyngeal cancer cell line KB; test: Cytotoxicity test of conjugate LDC1013; type: cell-based; details: incubated 15-30 min, then 2-3 days
Description: as §1, §11, §12
as §4, with “control” for “controls”, “the” for “the test”, “plate” for “plates”
as §9, §10

[18] = system: melanoma cell line A375; test: Cytotoxicity test of conjugate LDC1013; type: cell-based; details: A375, incubated 15-30 min, then 2-3 days
Description: as §1, §11, §12
as §4, with “control” for “controls”, “the” for “the test”, “plate” for “plates”
as §9, §10

[19] = system: human lung cancer cell H460; test: Cytotoxicity test of conjugate LDC10BR; type: cell-based; details: H460, incubated 15-30 min, then 2-3 days
Description: as §1, §11, §12
as §4, with “control” for “controls”, “the” for “the test”, “plate” for “plates”
as §9, §10

[20] = system: human nasopharyngeal cancer cell line KB; test: Cytotoxicity test of conjugate LDC10BR; type: cell-based; details: incubated 15-30 min, then 2-3 days
Description: as §1, §11, §12
as §4, with “control” for “controls”, “the” for “the test”, “plate” for “plates”
as §9, §10

[21] = system: melanoma cell line A375; test: Cytotoxicity test of conjugate LDC10BR; type: cell-based; details: A375, incubated 15-30 min, then 2-3 days
Description: as §1, §11, §12
as §4, with “control” for “controls”, “the” for “the test”, “plate” for “plates”
as §9, §10

SMILES: CC[C@H](C)[C@@H]([C@@H](CC(=O)N1CCC[C@H]1[C@H](OC)[C@@H](C)C(=O)N[C@H](C)[C@@H](O)c1ccccc1)OC)N(C)C(=O)[C@@H](NC(=O)[C@@H](NC)C(C)C)C(C)C [MMAE] (H-[NMeV]V[Dil][Dolaproine]-X1)
- IC50 [1]: 0.00054 µM
- IC50 [2]: 0.00052 µM
- IC50 [3]: 0.00068 µM
- IC50 [4]: 0.00086 µM
- IC50 [5]: 0.00077 µM
- IC50 [6]: 0.089 µM
- IC50 [7]: 0.1 µM
- IC50 [8]: 0.00045 µM
- IC50 [9]: 0.00062 µM
- IC50 [10]: 0.0127 µM
- IC50 [11]: 0.00874 µM
- IC50 [12]: 0.00383 µM
- IC50 [13]: 0.00638 µM
- IC50 [14]: 0.0288 µM
- IC50 [15]: 0.0128 µM
- IC50 [16]: 0.037 µM
- IC50 [17]: 0.02 µM
- IC50 [18]: 0.085 µM
- IC50 [19]: 0.037 µM
- IC50 [20]: 0.02 µM
- IC50 [21]: 0.085 µM
